The values below come from PMC11306511, “Combining VPS34 inhibitors with STING agonists enhances type I interferon signaling and anti‐tumor efficacy” (Molecular Oncology, 2024).

As usually defined, the inhibition is how much of the control response was suppressed. Usually Vd stands for a proportionality between amount in the body and measured concentration, not a real space. A word on the clearance: it is the rate of elimination divided by the concentration. One may read the bioavailability as dose-corrected exposure relative to a reference, in per cent. The low end stands for poor availability, the high end for good availability.

One series addresses CYP3A4 (Homo sapiens, UniProt P08684). Briefly: CYP inhibition. It is filed as in vitro ADME. As to the method: (§1) Experiments were conducted at Aragen Life Sciences Ltd. (Hyderabad, India) according to internal standard procedures.
The nature of another series: In vivo mouse PK. Here is the method:
as §1

A further series relates to CCL5 and CXCL10. In words: Plasma CCL5/CXCL10 in Renca tumor-bearing mice (Mesoscale Discovery). It is filed as in vivo, mouse. The following applies: Renca tumor-bearing BALB/c mice, 20 mg·kg^−1 oral daily, vs vehicle. From the text: (§2) Study protocols were approved by the Institutional Animal Care and Use Committee of CrownBio in China (AN‐1903‐05‐313) or the LIH's animal welfare committee in Luxembourg (agreement LECR‐2018‐12). Mice were handled according to European Union guidelines, adhering to the principles of replacement, reduction, and refinement (3Rs). Animals were housed in appropriate accommodations conducive to their well‐being, with provisions for housing, feeding, and environmental enrichment to meet their physical and behavioral needs. Highly skilled personnel were involved in carrying out procedures related to the animal experiments to ensure proper care and handling. […] Tumor growth was measured using a caliper every other day and estimated as follows: volume (cm^3) = (width)^2 × length × 0.5.
Cell culture medium was centrifuged at 300 g for 10 min at 4 °C and supernatant stored at −80 °C. […] Cytokine levels were quantified using Mesoscale Discovery (MSD) assays: human CCL5 (#F21ZN), CXCL10 (#K151UFK), IFNβ (#K151VIK); mouse CCL5 (#K152A2K) and CXCL10 (#K152UFK). Low concentrations of human IFNβ were determined using High‐Sensitivity IFNβ ELISA (#41415‐1; PBL Assay Science, Piscataway, NJ, USA). CCL5/CXCL10 levels in some experiments were quantified using R&D Systems (Minneapolis, MN, USA) ELISAs: human CCL5 (#DY278) or CXCL10 (#DY266); mouse CCL5 (#DY478).

The test system of another series is B16-F10 cells. In words: IFN/cytokine gene expression (qRT-PCR) and secretion (MSD) in B16-F10 cells. The following applies: 2 μM, 24 h, vs DMSO. It is filed as cell-based, murine. Here is the method: RNA was isolated using the PureLink kit (#12183018A; Thermo Fisher) and DNA‐binding columns (Rneasy plus kit, #74134; Qiagen) and/or Dnase treatment (#12185010; Thermo Fisher). After quantification using NanoDrop, 50 ng·μL^−1 RNA was used for cDNA synthesis with SuperScript IV VILO Master Mix (#11756050; Thermo Fisher). Quantitative RT‐PCR was run with diluted cDNA (1 : 25 or 1 : 12.5), PowerUp SYBR Green Master Mix (#A25741; Thermo Fisher), and 200 nM primers (see Table S3) on a CFX Connect RT‐PCR system (BioRad, Hercules, CA, USA). Data were analyzed using the ΔΔCT method.
Cell culture medium was centrifuged at 300 g for 10 min at 4 °C and supernatant stored at −80 °C. Mouse blood was collected at termination in K2‐EDTA tubes on ice, centrifuged at 1270 g for 10 min at 4 °C, and plasma was stored at −80 °C. Cytokine levels were quantified using Mesoscale Discovery (MSD) assays: human CCL5 (#F21ZN), CXCL10 (#K151UFK), IFNβ (#K151VIK); mouse CCL5 (#K152A2K) and CXCL10 (#K152UFK). Low concentrations of human IFNβ were determined using High‐Sensitivity IFNβ ELISA (#41415‐1; PBL Assay Science, Piscataway, NJ, USA). CCL5/CXCL10 levels in some experiments were quantified using R&D Systems (Minneapolis, MN, USA) ELISAs: human CCL5 (#DY278) or CXCL10 (#DY266); mouse CCL5 (#DY478).
(In general: Quantitative PCR measures a nucleic acid by following its amplification.)

A further series concerns B16-F10 tumors. In words: Tumor growth inhibition study, B16-F10 tumor-bearing mice. The following applies: B16-F10 in C57BL/6 mice; SB02024 20 mg·kg^−1 oral daily day 7-16; ADU-S100 10 μg intratumoral days 9, 11, 13, 15. It is filed as in vivo, mouse.
From the text: as §2, with “handling. Female 6 to 8‐week‐old BALB/c (supplied by Shanghai Lingchang Biotechnology Co., Shanghai, China; n = 14) or C57BL/6 mice (supplied by Janvier Labs, Le Genest‐Saint‐Isle, France; n = 40) were injected into the right flank with 1 × 10^6 Renca or 0.2 × 10^6 B16‐F10 cells, respectively, resuspended in 100 μL PBS (day 0). When tumors were palpable (day 9 for Renca, day 7 for B16‐F10 tumors), mice were randomly assigned into two groups for the Renca model with n = 6 (vehicle) and n = 8 (SB02024) or four groups for the B16‐F10 model with n = 10.” for “handling.”

Chain of CYP3A4 (P08684 whole entry): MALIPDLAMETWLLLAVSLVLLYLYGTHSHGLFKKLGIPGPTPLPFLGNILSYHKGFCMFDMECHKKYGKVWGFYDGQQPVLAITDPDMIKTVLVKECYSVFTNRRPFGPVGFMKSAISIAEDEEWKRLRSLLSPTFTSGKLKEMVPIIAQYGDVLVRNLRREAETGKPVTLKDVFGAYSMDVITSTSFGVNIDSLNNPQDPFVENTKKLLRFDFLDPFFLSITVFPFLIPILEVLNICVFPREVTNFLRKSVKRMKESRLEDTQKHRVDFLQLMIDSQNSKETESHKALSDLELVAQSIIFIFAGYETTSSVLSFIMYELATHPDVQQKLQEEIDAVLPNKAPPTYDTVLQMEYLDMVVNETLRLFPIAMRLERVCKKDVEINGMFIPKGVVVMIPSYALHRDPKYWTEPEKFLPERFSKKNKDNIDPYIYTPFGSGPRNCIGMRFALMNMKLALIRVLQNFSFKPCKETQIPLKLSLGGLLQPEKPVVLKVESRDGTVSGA

In the case of `C[C@@H]1COCCN1c1cc(N2CCCC[C@@H]2C(F)(F)F)[nH]c(=O)c1` [SB02024], the “inhibition of CYP3A (in words)” value against CYP3A4 is given as “weak inhibition”. Moreover, the inhibition at 10 µM on CYP3A4 (human, 10 μM, 3A4, read-out: Highest CYP inhibition (%) @ 10 μM) stood at 14%. For the same compound, in “In vivo mouse PK” (in vivo mouse PK), the Vd was 2.53 L/kg and the clearance stood at 26 mL/min/kg. The half-life in “In vivo mouse PK” (in vivo mouse PK, read-out: t½ (converted)) was 1.15 h. Besides, the “in vitro and in vivo clearance (in words)” value in “In vivo mouse PK” (mouse, in vivo) was “low”. The compound further yielded a bioavailability in “In vivo mouse PK” (po, in vivo mouse PK) of 96%. For the same compound, in the series with CCL5 and CXCL10, the “CCL5 and CXCL10 in blood plasma” value is on record as “significant increase”. Besides, the “transcription of IFNB1 and ISGs IRF1, IRF7, IRF9” value with B16-F10 cells is “significantly increased”. The “% TGI (percent tumor growth inhibition compared to vehicle control)” value in the series on B16-F10 tumors worked out at 27%.
